According to patent US20050004161A1 (published 2005):

- melting point: 154.5 to 155.5 °C
SMILES: Cn1cc(C(=O)NCc2ccc(Cl)cc2)c(=O)c2cc(COCC[C@@H](O)c3ccccc3)sc21
